Measurements reported in patent publication US7524860B2, “Antibacterial agents” (Pfizer Inc., priority 2004, dated 2009).
Converted amounts (≈) assume the structure as drawn. Where two headings read alike, the source gives them in different places.

Test system: Neisseria gonorrhoeae, GC525 (NG-2888)
Test: in-vitro antibacterial activity, microbroth dilution MIC susceptibility testing
Format: cell-based
Design: unit: ug/mL
Conditions: microbroth dilution in gonococcal broth, 20-24 hours at 35 C, lowest concentration preventing visible growth
Outline: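 Broth microdilution in gonococcal broth, inoculum ~5×10^5 cfu/mL, 20-24 h at 35 C in humidified CO2; compounds from 2 mg/mL DMSO stocks over 64-0.06 and 1-0.001 ug/mL two-fold series. MIC is the lowest concentration preventing visible growth, read visually; duplicates differing one well give the lower value, two wells the middle value.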

[1] = Neisseria gonorrhoeae, read-out: MIC

## CCNC(=O)Nc1nc2cc(-c3cccnc3)cc(C(=O)NCc3cccnc3)n2n1 [Example 91, 2-(3-Ethyl-ureido)-7-pyridin-3-yl-[1,2,4]triazolo[1,5-a]pyridine-5-carboxylic acid(pyridin-3-ylmethyl)-amide]
[1]
  MIC: 16 µg/mL (≈ 38.4 µM)

## CCNC(=O)Nc1nc2cc(-c3cccnc3)cc(C(=O)N(Cc3ccncc3)CC3CCCO3)n2n1 (stereo not shown) [Example 92, 2-(3-Ethyl-ureido)-7-pyridin-3-yl-[1,2,4]triazolo[1,5-a]pyridine-5-carboxylic acidpyridin-4-ylmethyl-(tetrahydro-furan-2-ylmethyl)-amide]
[1]
  MIC: 8 µg/mL (≈ 16 µM)

## CCNC(=O)Nc1nc2cc(-c3cccnc3)cc(C(=O)NC(C)c3ccncc3)n2n1 (stereo not shown) [Example 93, 2-(3-Ethyl-ureido)-7-pyridin-3-yl-[1,2,4]triazolo[1,5-a]pyridine-5-carboxylic acid (1-pyridin-4-yl-ethyl)-amide]
[1]
  MIC: 2 µg/mL (≈ 4.65 µM)

## CCNC(=O)Nc1nc2cc(-c3ccncc3Cl)cc(C(=O)NCC)n2n1 [Example 95, 7-(3-Chloro-pyridin-4-yl)-2-(3-ethyl-ureido)-[1,2,4]triazolo[1,5-a]pyridine-5-carboxylic acid ethylamide]
[1]
  MIC: 32 µg/mL (≈ 82.5 µM)

## CCNC(=O)Nc1nc2cc(-c3ccc(OC)nc3)cc(C(=O)NCC)n2n1 [Example 96, 2-(3-Ethyl-ureido)-7-(6-methoxy-pyridin-3-yl)-[1,2,4]triazolo[1,5-a]pyridine-5-carboxylic acidethylamide]
[1]
  MIC: 2 µg/mL (≈ 5.22 µM)

## CCNC(=O)Nc1nc2cc(-c3cnc(OC)nc3OC)cc(C(=O)NCC)n2n1 [Example 98, 7-(2,4-Dimethoxy-pyrimidin-5-yl)-2-(3-ethyl-ureido)-[1,2,4]triazolo[1,5-a]pyridine-5-carboxylic acid ethylamide]
[1]
  MIC: 2 µg/mL (≈ 4.83 µM)

## CCNC(=O)Nc1nc2cc(-c3cccc(C(F)(F)F)c3)cc(C(=O)NCC)n2n1 [Example 99, 2-(3-Ethyl-ureido)-7-(3-trifluoromethyl-phenyl)-[1,2,4]triazolo[1,5-a]pyridine-5-carboxylic acid ethylamide]
[1]
  MIC: 8 µg/mL (≈ 19 µM)

## CCNC(=O)Nc1nc2cc(-c3ccc(OC)cc3OC)cc(C(=O)NCC)n2n1 [Example 102, 7-(2,4-Dimethoxy-phenyl)-2-(3-ethyl-ureido)-[1,2,4]triazolo[1,5-a]pyridine-5-carboxylic acid ethylamide]
[1]
  MIC: > 64 µg/mL

## CCNC(=O)Nc1nc2cc(-c3cc(C)c(OC)c(C)c3)cc(C(=O)NCC)n2n1 [Example 103, 2-(3-Ethyl-ureido)-7-(4-methoxy-3,5-dimethyl-phenyl)-[1,2,4]triazolo[1,5-a]pyridine-5-carboxylic acid ethylamide]
[1]
  MIC: > 64 µg/mL

## CCNC(=O)Nc1nc2cc(-c3cccnc3)cc(C(=O)N(CC)CC)n2n1 [Example 104, 2-(3-Ethyl-ureido)-7-pyridin-3-yl-[1,2,4]triazolo[1,5-a]pyridine-5-carboxylic acid diethylamide]
  MIC: 64.0 µg/mL (≈ 168 µM)

## CCNC(=O)Nc1nc2cc(-c3cccnc3)cc(C(=O)NCCN(C)C)n2n1 [Example 105, 2-(3-Ethyl-ureido)-7-pyridin-3-yl-[1,2,4]triazolo[1,5-a]pyridine-5-carboxylic acid (2-dimethylamino-ethyl)-amide]
[1]
  MIC: 16 µg/mL (≈ 40.4 µM)

## CCNC(=O)Nc1nc2cc(-c3cccnc3)cc(C(=O)NCc3ccc(OC)c(OC)c3)n2n1 [Example 106, 2-(3-Ethyl-ureido)-7-pyridin-3-yl-[1,2,4]triazolo[1,5-a]pyridine-5-carboxylic acid 3,4-dimethoxy-benzylamide]
[1]
  MIC: > 64 µg/mL

## CCNC(=O)Nc1nc2cc(-c3cccnc3)cc(C(=O)NCCCN)n2n1 [Example 107, 2-(3-Ethyl-ureido)-7-pyridin-3-yl-[1,2,4]triazolo[1,5-a]pyridine-5-carboxylic acid (3-amino-propyl)-amide]
[1]
  MIC: > 64 µg/mL

## CCCC(=O)c1cc(-c2cccnc2)cc2nc(NC(=O)NCC)nn12 [Example 108, 1-(5-Butyryl-7-pyridin-3-yl-[1,2,4]triazolo[1,5-a]pyridine-2-yl)-3-ethyl-urea]
[1]
  MIC: 2 µg/mL (≈ 5.68 µM)

## CCNC(=O)Nc1nc2cc(-c3cccnc3)cc(C(=O)C3CC3)n2n1 [Example 109, 1-(5-Cyclopropanecarbonyl-7-pyridin-3-yl-[1,2,4]triazolo[1,5-a]pyridine-2-yl)-3-ethyl-urea]
[1]
  MIC: 2 µg/mL (≈ 5.71 µM)

## CCNC(=O)Nc1nc2cc(-c3cccnc3)cc(C(=O)Cc3ccccc3)n2n1 [Example 110, 1-Ethyl-3-(5-phenylacetyl-7-pyridin-3-yl-[1,2,4]triazolo[1,5-a]pyridine-2-yl)-urea]
[1]
  MIC: 4 µg/mL (≈ 9.99 µM)

## CCNC(=O)Nc1nc2cc(-c3cccnc3)cc(C(=O)c3ccccc3)n2n1 [Example 111, 1-(5-Benzoyl-7-pyridin-3-yl-[1,2,4]triazolo[1,5-a]pyridine-2-yl)-3-ethyl-urea]
[1]
  MIC: 8 µg/mL (≈ 20.7 µM)

## CCCC(=NOC)c1cc(-c2cccnc2)cc2nc(NC(=O)NCC)nn12 [Example 112, 1-Ethyl-3-[5-(1-methoxyimino-butyl)-7-pyridin-3-yl-[1,2,4]triazolo[1,5-a]pyridine-2-yl]-urea]
[1]
  MIC: 8 µg/mL (≈ 21 µM)

## CCNC(=O)Nc1cn2c(CN3CCCC3)cc(-c3cccnc3)cc2n1 [Example 113, 1-Ethyl-3-(7-pyridin-3-yl-5-pyrrolidin-1-ylmethyl-imidazo[1,2-a]pyridin-2-yl)-urea]
[1]
  MIC: 64 µg/mL (≈ 176 µM)

## CCOC(=O)c1cc(-c2cnc(N(C)C)nc2)cc2nc(NC(=O)NC(C)C)cn12 [Example 116, 7-(2-Dimethylamino-pyrimidin-5-yl)-2-(3-isopropyl-ureido)-imidazo[1,2-a]pyridine-5-carboxylic acid ethyl ester]
  MIC: >64.0 µg/mL

## CCNC(=O)Nc1cn2c(C(=O)OCC)cc(-c3ccc(OC)cc3)cc2n1 [Example 118, 2-(3-Ethyl-ureido)-7-(4-methoxy-phenyl)-imidazo[1,2-a]pyridine-5-carboxylic acid ethyl ester]
  MIC: >64.0 µg/mL

## CCNC(=O)Nc1nc2cc(N3CCCC3)cc(C(=O)N3CCCC3)n2n1 [Example 121, 1-Ethyl-3-[5-(pyrrolidine-1-carbonyl)-7-pyrrolidin-1-yl-[1,2,4]triazolo[1,5-a]pyridin-2-yl]-urea]
[1]
  MIC: 64 µg/mL (≈ 172 µM)

## CCNC(=O)Nc1nc2cc(-c3cccnc3)cc(-c3nc(CC)cs3)n2n1 [Example 122, 1-Ethyl-3-[5-(4-ethyl-thiazol-2-yl)-7-pyridin-3-yl-[1,2,4]triazolo[1,5-a]pyridin-2-yl]-urea]
[1]
  MIC: 0.06 µg/mL (≈ 0.152 µM)

## CCNC(=O)Nc1nc2cc(-c3cccnc3)cc(-c3cnc(CC)s3)n2n1 [Example 123, 1-Ethyl-3-[5-(2-ethyl-thiazol-5-yl)-7-pyridin-3-yl-[1,2,4]triazolo[1,5-a]pyridin-2-yl]-urea]
[1]
  MIC: > 64 µg/mL

## CCNC(=O)Nc1nc2cc(-c3cccnc3)cc(-c3cnc(CC)s3)n2n1 [Example 124, 1-ethyl-3-[5-(2-ethyl-thiazol-5-yl)-7-pyridin-3-yl-[1,2,4]triazolo[1,5-a]pyridin-2-yl]-urea]
  MIC: 64.0 µg/mL (≈ 163 µM)

## CCNC(=O)Nc1nc2cc(-c3cccnc3)cc(-c3cncs3)n2n1 [Example 125, 1-Ethyl-3-[5-(thiazol-5-yl)-7-pyridin-3-yl-[1,2,4]triazolo[1,5-a]pyridin-2-yl]-urea]
[1]
  MIC: 0.06 µg/mL (≈ 0.164 µM)

## CCNC(=O)Nc1nc2cc(-c3cccnc3)cc(-c3cccnc3)n2n1 [Example 126, 1-(5,7-Di-pyridin-3-yl-[2,4]triazolo[1,5-a]pyridin-2-yl)-3-ethyl-urea]
  MIC: 16.0 µg/mL (≈ 44.5 µM)

## CCNC(=O)Nc1nc2cc(-c3cccnc3)cc(-c3ccccn3)n2n1 [Example 127, 1-Ethyl-3-(5-pyridin-2-yl-7-pyridin-3-yl-[1,2,4]triazolo[1,5-a]pyridin-2-yl)-urea]
[1]
  MIC: 32 µg/mL (≈ 89 µM)

## CCNC(=O)Nc1nc2cc(-c3cccnc3)cc(-c3ncccn3)n2n1 [Example 128, 1-Ethyl-3-(7-pyridin-3-yl-5-pyrimidin-2-yl-[1,2,4]triazolo[1,5-a]pyridin-2-yl)-urea]
[1]
  MIC: > 64 µg/mL

## CCNC(=O)Nc1nc2cc(-c3cccnc3)cc(-c3cnc(C)o3)n2n1 [Example 129, N-Ethyl-N′-[5-(2-methyl-1,3-oxazol-5-yl)-7-pyridin-3-yl[1,2,4]triazolo[1,5-a]pyridin-2-yl]urea]
[1]
  MIC: 1 µg/mL (≈ 2.75 µM)

## CCNC(=O)Nc1nc2cc(-c3cccnc3)cc(N3CCN(C)CC3)n2n1 [Example 131, 1-Ethyl-3-[5-(4-methyl-piperazin-1-yl)-7-pyridin-3-yl-[1,2,4]triazolo[1,5-a]pyridin-2-yl]-urea]
[1]
  MIC: 32 µg/mL (≈ 84.1 µM)

## CCNC(=O)Nc1nc2cc(-c3cccnc3)cc(-c3cnc(C)s3)n2n1 [Example 132, 1-Ethyl-3-[5-(2-methyl-thiazol-5-yl)-7-pyridin-3-yl-[1,2,4]triazolo[1,5-a]pyridin-2-yl]-urea]
[1]
  MIC: 2 µg/mL (≈ 5.27 µM)

## CCNC(=O)Nc1nc2cc(-c3cccnc3)cc(-c3cnc(C)n3C)n2n1 [Example 135, N-[5-(1,2-Dimethyl-1H-imidazol-5-yl)-7-pyridin-3-yl[1,2,4]triazolo[1,5-a]pyridin-2-yl]-N′-ethylurea]
[1]
  MIC: 8 µg/mL (≈ 21.3 µM)

## CCNC(=O)Nc1nc2cc(-c3cccnc3)cc(-c3cncn3C)n2n1 [Example 136, N-ethyl-N′-[5-(1-methyl-1H-imidazol-5-yl]-7-pyridin-3-yl[1,2,4]triazolo[1,5-a]pyridin-2-yl]urea]
[1]
  MIC: 4 µg/mL (≈ 11 µM)

## CCNC(=O)Nc1nc2cc(-c3cccnc3)cc(N(C)C3CCCCC3)n2n1 [Example 137, N-[5-[Cyclohexyl(methyl)amino]-7-pyridin-3-yl[1,2,4]triazolo[1,5-a]pyridin-2-yl]-N′-ethylurea]
[1]
  MIC: 32 µg/mL (≈ 81.3 µM)

## CCNC(=O)Nc1nc2cc(-c3cccnc3)cc(NC3CCCCC3)n2n1 [Example 138, 1-(5-Cyclohexylamino-7-pyridin-3-yl-[1,2,4]triazolo[1,5-a]pyridin-2-yl)-3-ethyl-urea]
[1]
  MIC: 0.5 µg/mL (≈ 1.32 µM)

## CCNC(=O)Nc1nc2cc(-c3cccnc3)cc(-c3cnc(CC)o3)n2n1 [Example 139, N-Ethyl-N′-[5-(2-ethyl-1,3-oxazol-5-yl)-7-pyridin-3-yl[1,2,4]triazolo[1,5-a]pyridin-2-yl]urea]
[1]
  MIC: 1 µg/mL (≈ 2.65 µM)
